Measured values: US7972793B2, “Methods and compositions for the treatment of psychotic disorders through the identification of the SULT4A1-1 haplotype” (Suregene, LLC, priority 2009, dated 2011)
Where two headings read alike, the source gives them in different places. Marks after values point to notes of the source that are not given here.

Assays:
[1] = test system: CATIE Caucasian schizophrenia patients; assay: CATIE Phase 1 drug response: change in total PANSS (LOCF), drug switchers, segmented by SULT4A1-1 status; type: in vivo, human; details: for ≦−20% (number of individuals with this percent change in total PANSS; responders) / ≧−20% (number of individuals with this percent change in total PANSS; non-responders): LOCF; for Non Responder (number) / Responder (number): Table 16, 20% decrease in PANSS threshold
Source text: There are several different metrics for quantifying response in clinical trials of antipsychotic medications. The most commonly used psychometric instrument is the Positive and Negative Syndrome Scale (PANSS), a 30-item semi-quantitative instrument scored by clinical professionals (Kay et al., 1987). The greater the decrease in PANSS score, the better the clinical response. The most direct measure of clinical response is absolute change in PANSS score. In addition to absolute change, the improvement is often reported as a percentage change from baseline PANSS score.
A decrease of at least 20% in total PANSS is one commonly used threshold for response (Leucht et al., 2009).
The design of the CATIE study has been described in detail by others (Lieberman et al., 2005; Stroup et al., 2003). […] A total of 738 subjects consented to provide DNA for genetic study. […] Retrospective genetic analyses, judged to be exempt from human studies requirements by an IRB, were conducted in the current study.
All tested patients were studied using well established clinical endpoints comparing baseline, intermediate, and last observation carried forward (LOCF) for the PANSS scores using CATIE data. LOCF analysis is a commonly used clinical endpoint for clinical trials for neuropsychiatric drugs, with changes in PANSS scores of between negative 20% and negative 30% used as typical endpoints to indicate clinically significant response (Leucht et al., 2009). To remove time on drug as a variable for the CATIE trial, analysis was limited to only those patients who were randomized to a different drug following the initial washout period (drug switchers).
As mentioned previously, the mean change in absolute or percent PANSS provides an important measure of efficacy in patients undergoing antipsychotic treatments. Indeed, many pivotal trials in the psychosis field used absolute and/or percentage change in PANSS Score as the primary endpoint (Leucht et al., 2009). […] Therefore, in addition to examining a categorical definition of clinically significant response, the inventors determined the impact of segmentation by SULT4A1-1 status on the quantitative measure of clinical improvement—delta PANSS.

[2] = test system: CATIE African American schizophrenia patients; assay: CATIE drug response: change in total PANSS (LOCF), segmented by SULT4A1-1 status, African Americans; type: in vivo, human
Procedure: The design of the CATIE study has been described in detail by others (Lieberman et al., 2005; Stroup et al., 2003). […] A total of 738 subjects consented to provide DNA for genetic study. […] Retrospective genetic analyses, judged to be exempt from human studies requirements by an IRB, were conducted in the current study. All tested patients were studied using well established clinical endpoints comparing baseline, intermediate, and last observation carried forward (LOCF) for the PANSS scores using CATIE data. […] To remove time on drug as a variable for the CATIE trial, analysis was limited to only those patients who were randomized to a different drug following the initial washout period (drug switchers).

[3] = test system: CATIE Caucasian schizophrenia patients; assay: Time to discontinuation for all causes in the CATIE study; type: in vivo, human
Source text: The primary endpoint for the CATIE study was time to discontinuation for all causes (Lieberman et al., 2005). Thus the inventors evaluated the effect of SULT41-1 status on this important parameter.

[4] = test system: CATIE schizophrenia patients; assay: Length of successful treatment by the CGI scale (TMSUCC1) in CATIE; type: in vivo, human
Source text: The CATIE clinical data set included the Clinical Global Impression (CGI) Scale, an observer-provided assessment of the psychiatric health of the patient (Stroup et al., 2003; Guy 1976). Patients are rated with the CGI Scale from 1 to 7, with higher scores indicating greater severity of illness. The CATIE study provided a response variable that measured the time (in months) of successful treatment as measured by the CGI scale (“TMSUCC1” in the CATIE data).
The CATIE clinical data set included Clinical Global Impression (CGI) Scale, an observer-provided assessment of the psychiatric health of the patient (Stroup et al., 2003; Guy 1976). Patients are rated with the CGI Scale from 1 to 7, with higher scores indicating greater severity of illness. The CATIE study provided a response variable that measured the time (in months) of successful treatment as measured by the CGI scale (“TMSUCC1” in the CATIE data).

[5] = test system: CATIE Caucasian subjects; assay: Rate of hospitalization due to exacerbation of psychosis in CATIE by SULT4A1-1 status; type: in vivo, human
Source text: For this analysis, the inventors assigned a dichotomous value (positive or negative) for hospitalization status to subjects in each phase of the trial based on only the first hospitalization event for a given patient in that phase.

[6] = test system: CATIE Phase I non-responders; details: CATIE Phase II, LOCF; for Responders (number): decrease PANSS ≧ 20%
[7] = SULT4A1-1 Negative, CATIE Caucasians
[8] = SULT4A1-1 Positive, CATIE Caucasians
[9] = SULT4A1-1 negative group (sign not given)
[10] = SULT4A1-1 positive group (sign not given)
[11] = olanzapine SULT4A1-1 + vs olanzapine SULT4A1-1 −, CATIE
[12] = olanzapine SULT4A1-1 + vs perphenazine SULT4A1-1 +, CATIE
[13] = olanzapine SULT4A1-1 + vs quetiapine SULT4A1-1 +, CATIE
[14] = olanzapine SULT4A1-1 + vs risperidone SULT4A1-1 +, CATIE
[15] = olanzapine SULT4A1-1 + vs unsegmented (all drugs), CATIE
[16] = olanzapine SULT4A1-1 + vs unsegmented SULT4A1-1 +, CATIE
[17] = olanzapine SULT4A1-1 + vs unsegmented olanzapine, CATIE
[18] = olanzapine SULT4A1-1 + vs ziprasidone SULT4A1-1 +, CATIE
[19] = SULT4A1-1 Positive, CATIE Phases 1, 2 and/or 3
[20] = SULT4A1-1 negative, CATIE Phases 1, 2 and/or 3
[21] = Unsegmented, CATIE Phases 1, 2 and/or 3

Cc1cc2c(s1)Nc1ccccc1N=C2N1CCN(C)CC1 [Olanzapine]
DELTA PANSS % (mean change in PANSS score from baseline to LOCF) [1, 7]: −3*** %
≦−20% (number of individuals with this percent change in total PANSS; responders) [1, 7]: 10
≧−20% (number of individuals with this percent change in total PANSS; non-responders) [1, 7]: 33
DELTA PANSS % (mean change in PANSS score from baseline to LOCF) ([1]; SULT4A1-1 Negative, CATIE Caucasians, listed as olanzapine): −3%
DELTA PANSS % (mean change in PANSS score from baseline to LOCF) [1, 8]: −24%
≦−20% (number of individuals with this percent change in total PANSS; responders) [1, 8]: 10
≧−20% (number of individuals with this percent change in total PANSS; non-responders) [1, 8]: 5
Non Responder (number) [1, 9]: 33
Responder (number) [1, 9]: 10
Non Responder (number) [1, 10]: 5
Responder (number) [1, 10]: 10
Effect size ([1]; olanzapine SULT4A1-1 + vs SULT4A1-1 + except olanzapine, CATIE): 0.68
Effect size [1, 11]: 0.93
Mean difference (95% CI) in delta PANSS [1, 11]: −20.9 (−33.4 to −8.4)
Effect size [1, 12]: 0.68
Mean difference (95% CI) in delta PANSS [1, 12]: −14.2 (−29.8 to 1.4)
Effect size [1, 13]: 0.75
Mean difference (95% CI) in delta PANSS [1, 13]: −14.9 (−28.3 to −1.5)
Effect size [1, 14]: 0.93
Mean difference (95% CI) in delta PANSS [1, 14]: −20.9 (−33.2 to −6.0)
Effect size [1, 15]: 0.83
Mean difference (95% CI) in delta PANSS [1, 15]: −19.6 (−31.7 to −7.5)
Effect size [1, 16]: 0.60
Mean difference (95% CI) in delta PANSS [1, 16]: −13.0 (−24.7 to −1.2)
Effect size [1, 17]: 0.69
Mean difference (95% CI) in delta PANSS [1, 17]: −15.5 (−27.8 to −3.2)
Effect size [1, 18]: 0.77
Mean difference (95% CI) in delta PANSS [1, 18]: −16.1 (−32.7 to 0.5)
Effect size ([1]; olanzapine-treated SULT4A1-1 positive patients compared to various other SULT4A1-1-drug combinations, CATIE): −0.91 to −0.47
delta PANSS ([1]; overall (not segmented by SULT4A1-1 status), CATIE): −9
Responders (number, out of 58) ([1]; patients unselected for SULT4A1-1 status, 20% PANSS threshold, CATIE Caucasians): 20
≦−20% (number of individuals; responders) ([2]; SULT4A1-1 Negative): 15
≧−20% (number of individuals; non-responders) ([2]; SULT4A1-1 Negative): 30
≦−20% (number of individuals; responders) ([2]; SULT4A1-1 Positive): 1
≧−20% (number of individuals; non-responders) ([2]; SULT4A1-1 Positive): 3
Responders ([2]; SULT4A1-1 Positive, change in total PANSS ≦−20%): 25%
Time to discontinuation, mean time in months ([3]; SULT4A1-1 Negative): 10.0** Months
Length of Successful Treatment (CGI Months), Mean ([4]; SULT4A1-1 Positive): 8.33^d Months
Length of Successful Treatment (CGI Months), Mean ([4]; Unsegmented): 6.10 Months
HOSP (number of subjects hospitalized) [5, 19]: 1
HOSP (rate of hospitalization) [5, 19]: (2.6%)
HOSP (rate of hospitalization) ([5]; SULT4A1-1 Positive, CATIE Phases 1, 2 and/or 3, listed as olanzapine): 2.6%
HOSP (number of subjects hospitalized) [5, 20]: 22
HOSP (number of subjects hospitalized) [5, 21]: 23
HOSP (rate of hospitalization) [5, 21]: (14.2%)
Nonresponders (number) ([6]; SULT4A1-1 Negative): 14
Responders (number) ([6]; SULT4A1-1 Negative): 3
Nonresponders (number) ([6]; SULT4A1-1 Positive): 4
Responders (number) ([6]; SULT4A1-1 Positive): 3

OCCN1CCN(CCCN2c3ccccc3Sc3ccc(Cl)cc32)CC1 [Perphenazine]
≦−20% (number of individuals with this percent change in total PANSS; responders) [1, 7]: 16
≧−20% (number of individuals with this percent change in total PANSS; non-responders) [1, 7]: 47
≦−20% (number of individuals with this percent change in total PANSS; responders) [1, 8]: 5
≧−20% (number of individuals with this percent change in total PANSS; non-responders) [1, 8]: 9
Non Responder (number) [1, 10]: 9
Responder (number) [1, 10]: 5
≦−20% (number of individuals; responders) ([2]; SULT4A1-1 Negative): 10
≧−20% (number of individuals; non-responders) ([2]; SULT4A1-1 Negative): 27
≦−20% (number of individuals; responders) ([2]; SULT4A1-1 Positive): 0
≧−20% (number of individuals; non-responders) ([2]; SULT4A1-1 Positive): 2
Time to discontinuation, mean time in months ([3]; SULT4A1-1 Positive): 7.6** Months
HOSP (number of subjects hospitalized) [5, 19]: 1
HOSP (number of subjects hospitalized) [5, 20]: 9
HOSP (number of subjects hospitalized) [5, 21]: 10
